# Key:
# Experiment in all cases: relative viability (nuclei count vs DMSO), 5 days (fraction); higher = more cells survive
# Serdemetan + Tozasertib = compound: c1ccc2c(CCNc3ccc(Nc4ccncc4)cc3)c[nH]c2c1 [Serdemetan] + Cc1cc(Nc2cc(N3CCN(C)CC3)nc(Sc3ccc(NC(=O)C4CC4)cc3)n2)n[nH]1 [Tozasertib] (partner 0.1 µM)
# In short: (§1)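 A single step with final 0.05% Triton X-100, 1% formaldehyde and 1 ug/ml Hoechst fixed the cells and stained nuclei 5 days after treatment. Lung cancer cell lines in 1536-well plates had been treated by pin tool the day after seeding with one drug alone or a fixed anchor-drug dose plus five library-drug doses (not always all listed) in √10 steps, and nuclei were counted on 4× images. Relative viability is the ratio of nuclei in treated wells to nuclei in vehicle wells, taken as the median of duplicate plates.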
# Serdemetan + Bortezomib = compound: c1ccc2c(CCNc3ccc(Nc4ccncc4)cc3)c[nH]c2c1 [Serdemetan] + CC(C)C[C@H](NC(=O)[C@H](Cc1ccccc1)NC(=O)c1cnccn1)B(O)O [Bortezomib] (partner 0.002 µM)
# In short: as §1
# Serdemetan + Pemetrexed = compound: c1ccc2c(CCNc3ccc(Nc4ccncc4)cc3)c[nH]c2c1 [Serdemetan] + Nc1nc2[nH]cc(CCc3ccc(C(=O)N[C@@H](CCC(=O)O)C(=O)O)cc3)c2c(=O)[nH]1 [Pemetrexed] (partner 0.2 µM)
# In short: as §1
# Selisistat + Dasatinib = compound: C1CC(C2=C(C1)C3=C(N2)C=CC(=C3)Cl)C(=O)N [Selisistat] + Cc1nc(Nc2ncc(C(=O)Nc3c(C)cccc3Cl)s2)cc(N2CCN(CCO)CC2)n1 [Dasatinib] (partner 0.075 µM)
# In short: as §1
Cell Line,relative viability (Serdemetan + Tozasertib; first compound 0.04 µM),relative viability (Serdemetan + Tozasertib; first compound 0.1265 µM),relative viability (Serdemetan + Tozasertib; first compound 0.4 µM),relative viability (Serdemetan + Tozasertib; first compound 1.265 µM),relative viability (Serdemetan + Tozasertib; first compound 4 µM),relative viability (Serdemetan + Bortezomib; first compound 0.04 µM),relative viability (Serdemetan + Bortezomib; first compound 0.1265 µM),relative viability (Serdemetan + Bortezomib; first compound 0.4 µM),relative viability (Serdemetan + Bortezomib; first compound 1.265 µM),relative viability (Serdemetan + Bortezomib; first compound 4 µM),relative viability (Serdemetan + Pemetrexed; first compound 0.04 µM),relative viability (Serdemetan + Pemetrexed; first compound 0.1265 µM),relative viability (Serdemetan + Pemetrexed; first compound 0.4 µM),relative viability (Serdemetan + Pemetrexed; first compound 1.265 µM),relative viability (Serdemetan + Pemetrexed; first compound 4 µM),relative viability (Selisistat + Dasatinib; first compound 0.4 µM),relative viability (Selisistat + Dasatinib; first compound 1.265 µM),relative viability (Selisistat + Dasatinib; first compound 4 µM),relative viability (Selisistat + Dasatinib; first compound 12.65 µM),relative viability (Selisistat + Dasatinib; first compound 40 µM)
NCI-H1651,0.696,0.613,0.338,0.343,0.292,0.805,0.938,0.904,0.501,0.356,0.582,0.388,0.505,0.443,0.323,0.434,0.378,0.359,0.348,0.34
NCI-H1666,0.569,0.588,0.588,0.553,0.547,0.97,0.761,0.838,0.868,0.534,0.795,0.87,0.786,,0.675,0.799,0.763,0.734,0.594,0.525
NCI-H1734,0.29,0.235,0.209,0.142,0.134,0.908,,0.677,0.158,0.18,0.44,0.396,0.405,0.171,0.14,0.48,0.469,0.622,0.502,0.464
NCI-H1755,0.568,0.625,0.55,0.435,0.354,0.877,0.949,0.896,0.58,0.563,0.575,0.4,0.539,0.512,0.418,0.474,0.476,0.418,0.419,0.414
NCI-H1915,0.406,0.416,0.38,0.317,0.396,0.957,0.974,1.02,0.723,0.86,0.52,0.517,0.493,0.491,0.489,0.322,0.312,0.261,0.319,0.313
NCI-H1975,0.825,0.701,0.722,,0.771,0.346,0.378,0.377,0.313,0.314,0.279,0.3,0.312,0.309,0.295,0.346,0.383,0.195,0.314,0.345
NCI-H1993,0.578,0.579,0.592,0.568,0.562,1.08,1.06,1.05,,1.11,0.577,0.581,0.591,0.589,0.546,0.629,0.655,0.501,0.672,0.589
NCI-H2009,0.7,0.712,0.705,0.675,0.625,0.95,0.986,0.929,0.787,0.797,1.03,0.89,1.1,0.895,0.892,0.323,0.267,0.208,0.239,0.241

# Source: the supplement of paper PMC10307832
